# Measurements taken from patent US20250084101A1, “COMPOUND FOR INHIBITING AND DEGRADING IRAK4, AND PHARMACEUTICAL COMPOSITION AND PHARMACEUTICAL APPLICATION THEREOF” (XIZANG HAISCO PHARMACEUTICAL CO., LTD., priority 2022, published 2025).
# What was measured:
# [1] = biological target: T1, hERG potassium ion channel (Homo sapiens, UniProt Q12809); experiment: Effect on hERG potassium ion channel (manual patch-clamp, CHO cells); assay type: cell-based; conditions: CHO cells stably expressing hERG, whole cell patch-clamp; read-out: IC50 for inhibitory effect on hERG potassium channel current
# T1 construct: expressed in transfected cells; host or cells: CHO (Chinese hamster ovary) cells stably expressing hERG
# T1 sequence (Q12809 whole entry): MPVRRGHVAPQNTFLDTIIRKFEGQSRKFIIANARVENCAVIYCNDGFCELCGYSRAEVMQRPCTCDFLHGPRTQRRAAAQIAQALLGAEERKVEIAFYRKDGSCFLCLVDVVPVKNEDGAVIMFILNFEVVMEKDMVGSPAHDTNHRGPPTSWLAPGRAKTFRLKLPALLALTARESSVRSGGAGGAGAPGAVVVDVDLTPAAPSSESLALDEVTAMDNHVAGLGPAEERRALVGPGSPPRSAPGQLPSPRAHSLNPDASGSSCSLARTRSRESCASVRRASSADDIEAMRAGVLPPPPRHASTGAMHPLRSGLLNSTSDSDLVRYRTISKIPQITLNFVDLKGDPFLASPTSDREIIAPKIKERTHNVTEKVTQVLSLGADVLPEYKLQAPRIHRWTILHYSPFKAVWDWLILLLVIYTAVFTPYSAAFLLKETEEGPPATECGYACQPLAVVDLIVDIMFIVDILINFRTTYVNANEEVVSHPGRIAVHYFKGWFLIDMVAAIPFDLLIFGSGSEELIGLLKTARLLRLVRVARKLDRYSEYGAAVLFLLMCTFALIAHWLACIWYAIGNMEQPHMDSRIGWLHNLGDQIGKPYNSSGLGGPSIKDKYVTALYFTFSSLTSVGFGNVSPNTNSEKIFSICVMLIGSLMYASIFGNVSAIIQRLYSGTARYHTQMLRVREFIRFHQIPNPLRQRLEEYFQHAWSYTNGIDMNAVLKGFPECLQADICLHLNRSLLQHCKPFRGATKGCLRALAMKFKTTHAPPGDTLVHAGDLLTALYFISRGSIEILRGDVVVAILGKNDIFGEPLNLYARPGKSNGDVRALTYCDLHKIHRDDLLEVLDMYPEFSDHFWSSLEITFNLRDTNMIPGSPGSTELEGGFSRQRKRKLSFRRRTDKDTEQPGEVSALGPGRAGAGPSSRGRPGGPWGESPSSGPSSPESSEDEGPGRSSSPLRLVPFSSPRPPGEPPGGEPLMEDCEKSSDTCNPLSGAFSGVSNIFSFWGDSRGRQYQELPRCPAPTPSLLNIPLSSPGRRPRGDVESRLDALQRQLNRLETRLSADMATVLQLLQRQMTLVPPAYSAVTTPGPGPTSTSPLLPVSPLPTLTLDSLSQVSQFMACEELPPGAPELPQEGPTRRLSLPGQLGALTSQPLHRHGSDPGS
# Excerpt: Experimental platform: electrophysiological manual patch-clamp system
# Cell line: Chinese hamster ovary (CHO) cell line stably expressing hERG potassium ion channel
# Experimental method: In CHO (Chinese Hamster Ovary) cells stably expressing hERG potassium channel, whole cell patch-clamp technique was used to record hERG potassium channel current at room temperature. The glass microelectrode was made of a glass electrode blank (BF150-86-10, Sutter) by a puller. The tip resistance after filling the liquid in the electrode was about 2-5 MQ. The glass microelectrode can be connected to the patch-clamp amplifier by inserting the glass microelectrode into an amplifier probe. The clamping voltage and data recording were controlled and recorded by the pClamp 10 software through a computer. The sampling frequency was 10 kHz, and the filtering frequency was 2 kHz. After the whole cell records were obtained, the cells were clamped at −80 mV, and the step voltage that induced the hERG potassium current (lhERG) was depolarized from −80 mV to +20 mV for 2 s, then repolarized to −50 mV, and returned to −80 mV after 1 s. This voltage stimulation was given every 10 s, and the administration process was started after the hERG potassium current was confirmed to be stable (at least 1 minute). The compound was administered for at least 1 minute at each test concentration, and at least 2 cells (n≥2) were tested at each concentration.
# Data processing: Data analysis processing was carried out by using pClamp 10, GraphPad Prism 5 and Excel software. The inhibition degree of hERG potassium current (peak value of hERG tail current induced at −50 mV) at different compound concentrations was calculated by the following formula:
# [formula] • where Inhibition % represents the percentage of inhibition of hERG potassium current by the compound, and l and lo represent the amplitude of hERG potassium current after and before the administration, respectively.
# Compound IC50 was calculated using GraphPad Prism 5 software by fitting according to the following equation:
# [formula] • where X represents the Log value of the tested concentration of the test sample, Y represents the inhibition percentage at the corresponding concentration, and Bottom and Top represent the minimum and maximum inhibition percentage, respectively.
# [2] = Pharmacokinetic test in mice; assay type: in vivo, ICR mice; conditions: male, ICR, mouse, plasma, po, 10 mg/kg, i.g. 10 mg/kg, read-out: AUC0-t
# Experimental: Experimental animals: Male ICR mice, about 25 g, 6 mice/compound, purchased from Chengdu Ddossy Experimental Animals Co., Ltd.
# Test design: On the day of the experiment, 6 ICR mice were randomly grouped according to their body weights. The animals were fasted with water available for 12 to 14 h one day before the administration, and were fed 4 h after the administration.
# • Vehicle for intravenous administration: 5% DMA+5% Solutol+90% Saline; • Vehicle for intragastric administration: 5% DMSO+30% PEG400+65% (20% SBE-CD); (DMSO: dimethyl sulfoxide; DMA: dimethylacetamide; Solutol: polyethylene glycol-15-hydroxystearate; PEG400: polyethylene glycol 400; SBE-β-CD: sulfobutyl-β-cyclodextrin; Saline: physiological saline)
# Before and after the administration, 0.15 mL of blood was taken from the orbit of the animals under isoflurane anesthesia and placed in an EDTAK2 centrifuge tube. The blood was centrifuged at 5000 rpm and 4° C. for 10 min to collect plasma. The blood collection time points for the intravenous administration group and intragastric administration group were 0 min, 5 min, 15 min, 30 min, 1 h, 2 h, 4 h, 7 h and 24 h. Before analysis and detection, all samples were stored at −60° C. The samples were analyzed quantitatively by LC-MS/MS.
# IRAK4 protein = biological target: T2, IRAK4 protein (Homo sapiens, UniProt Q9NWZ3); experiment: IRAK4 degradation activity in hPBMC cells (24 hours); assay type: cell-based; conditions: 100 nM, relative to vehicle control
# T2 construct: endogenous in cells; host or cells: human peripheral blood mononuclear cells (hPBMC) from healthy volunteers
# T2 sequence (Q9NWZ3 1-460): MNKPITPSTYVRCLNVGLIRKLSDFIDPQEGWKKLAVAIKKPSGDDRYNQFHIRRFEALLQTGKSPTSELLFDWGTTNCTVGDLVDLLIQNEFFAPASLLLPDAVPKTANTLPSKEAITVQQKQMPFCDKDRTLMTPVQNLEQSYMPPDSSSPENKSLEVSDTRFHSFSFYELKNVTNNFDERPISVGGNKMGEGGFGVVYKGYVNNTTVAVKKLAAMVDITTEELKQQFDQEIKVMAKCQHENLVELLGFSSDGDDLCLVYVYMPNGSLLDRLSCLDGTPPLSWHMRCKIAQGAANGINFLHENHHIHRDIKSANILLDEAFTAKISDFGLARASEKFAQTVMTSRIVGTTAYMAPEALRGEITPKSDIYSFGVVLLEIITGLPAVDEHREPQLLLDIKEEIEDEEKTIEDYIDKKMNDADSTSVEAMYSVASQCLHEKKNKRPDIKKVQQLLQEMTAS
# Experimental: hPBMC cells are human peripheral blood mononuclear cells. Peripheral venous blood was taken from healthy volunteers, and hPBMCs were isolated using Ficoll density gradient centrifugation (Ficoll-Paque™ PLUS 1.077, GE, Cat. 17-1140-02). Culture conditions: RPMI-1640+10% FBS+1% penicillin-streptomycin solution. The cells were cultured in an incubator at 37° C. and 5% CO2. The cells were plated in a 24-well plate at 1×10^6 cells/well. After plating, compounds at different concentrations were added, and the cells were cultured in an incubator at 37° C. and 5% CO2 for 24 hours. After the culture was completed, the cells were collected, and RIPA lysis buffer (beyotime, Cat. P0013B) was added. The cells were lysed on ice for 20 minutes, and then centrifuged at 12000 rpm at 4° C. for 10 minutes. The protein sample of the supernatant was collected, the protein was quantified using a BCA kit (Beyotime, Cat. P0009), and then the protein was diluted to 1 mg/mL. The expression of IRAK4 (CST, Cat. 4363S) and the internal reference cofilin (CST, Cat. 5175S) were detected using a fully automated western blot quantitative analyzer (Proteinsimple). The expression level of IRAK4 relative to the internal reference was calculated using compass software. The remaining IRAK4 protein IRAK4% relative to the vehicle control group at different doses was calculated using formula (1), and the IRAK4 protein degradation relative to the vehicle control group at different doses was calculated using formula (2), where IRAK4administration was the expression level of IRAK4 in the administration groups at different doses, and IRAK4vehicle was the expression level of IRAK4 in the vehicle control group. An IRAK4 degradation-drug concentration curve was fit using Graphpad Prism 8 software, and the DC50 was calculated.
compound,measurement,setting,value
Cn1nc(C2CCC(=O)NC2=O)c2cccc(C#CCO[C@@H]3CCN(C[C@H]4CC[C@H](n5cc(NC(=O)c6cnn7ccc(N8C[C@H]9C[C@@H]8CO9)nc67)c(C(F)F)n5)CC4)C[C@@H]3F)c21 (stereo partly drawn) [Compound 10],IC50,[1],> 30 µM
same,AUC(0-t),[2],17500 ± 5260 ng·h/mL
same,Remaining IRAK4 protein IRAK4%,IRAK4 protein,A (A ≤ 10%)
